Calls of active or inactive are those of the source. No cut-off for these calls is given here.
How the values were obtained:
Protease = Protease (Human immunodeficiency virus 1, UniProt Q9YQ12); assay: Inhibition of wild type HIV-1 protease assessed as hydrolysis of fluorogenic substrate Abz-Thr-Ile-Nle-Phe(NO2)-Gln-Arg after 10 mins by fluorescence assay
[1] = tested on: Human immunodeficiency virus type 1 protease (Human immunodeficiency virus 1), Q72874 [V82A]; assay: Inhibition of HIV-1 protease V82A mutant assessed as hydrolysis of fluorogenic substrate Abz-Thr-Ile-Nle-Phe(NO2)-Gln-Arg after 10 mins by fluorescence assay
[2] = tested on: Human immunodeficiency virus type 1 protease (Human immunodeficiency virus 1), Q72874 [V32I]; assay: Inhibition of HIV-1 protease V32I mutant assessed as hydrolysis of fluorogenic substrate Abz-Thr-Ile-Nle-Phe(NO2)-Gln-Arg after 10 mins by fluorescence assay
[3] = Cytotoxicity against human U937 cells after 1 to 4 hrs by MTS assay; type: cell-based, U-937

Protease, sequence (Q9YQ12 whole entry): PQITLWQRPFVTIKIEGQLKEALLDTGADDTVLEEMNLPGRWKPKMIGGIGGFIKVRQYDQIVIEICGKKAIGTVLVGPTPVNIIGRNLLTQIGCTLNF

SMILES	IC50 (Protease) [µM]	inhibition [1]	inhibition [2]	CC50 [3] [µM]
COc1ccc(S(=O)(=O)N(CC(C)C)C[C@@H](O)COc2ccc3c(ccn3C)c2)cc1OC	> 1000			
COc1ccc(S(=O)(=O)N(CC(C)C)C[C@@H](O)COc2ccc3c(ccn3Cc3ccccc3)c2)cc1OC	> 1000			
COc1ccc(S(=O)(=O)N(CC(C)C)C[C@@H](O)COc2ccc3[nH]ccc3c2)cc1OC	1			
Cc1c(O)cccc1C(=O)N[C@@H](CSc1ccccc1)[C@H](O)CN1C[C@H]2CCCC[C@H]2C[C@H]1C(=O)NC(C)(C)C [NELFINAVIR]	0.009			
COc1ccc(S(=O)(=O)N(CC(C)C)C[C@@H](O)COc2ccc3occc3c2)cc1OC	130			
COc1ccc(S(=O)(=O)N(CC(C)C)C[C@@H](O)COc2ccc3sccc3c2)cc1OC	0.06	inactive	inactive	> 90
